Four compounds from US6194450A, “Polyaromatic heterocyclic compounds and pharmaceutical compositions comprised thereof” (Centre International de Recherches Dermatologiques Galderma, priority 1995, dated 2001) can be followed below.

Usually AC50 stands for the concentration giving half of the maximal activity seen. Lower therefore signals greater potency. What is called Kd is the concentration at which binding is half-saturated.

For one assay, the target named is T1, RARγ (Homo sapiens, UniProt P13631).
T1 construct: expressed in transfected cells; host or cells: HeLa
T1 sequence (P13631 1-454): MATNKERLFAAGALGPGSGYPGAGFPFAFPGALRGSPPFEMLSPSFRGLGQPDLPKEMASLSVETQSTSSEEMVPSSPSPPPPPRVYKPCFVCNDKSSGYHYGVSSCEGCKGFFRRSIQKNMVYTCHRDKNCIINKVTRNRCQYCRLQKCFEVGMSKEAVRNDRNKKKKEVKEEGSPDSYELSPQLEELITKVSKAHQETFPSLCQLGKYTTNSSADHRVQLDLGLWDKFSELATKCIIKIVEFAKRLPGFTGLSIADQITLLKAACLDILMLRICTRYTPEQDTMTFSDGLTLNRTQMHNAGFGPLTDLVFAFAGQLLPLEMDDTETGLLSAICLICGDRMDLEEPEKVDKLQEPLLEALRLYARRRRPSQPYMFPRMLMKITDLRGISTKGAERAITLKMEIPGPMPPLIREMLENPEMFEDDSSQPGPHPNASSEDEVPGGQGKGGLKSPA
Description: RAR Transactivation, RARγ (HeLa cells cotransfected with human RAR expression vector and TREpp-tk-CAT reporter). Format: cell-based. The following applies: concentration eliciting 50% of the maximum CAT activity. How it is done: (§1) (b) This test was carried out as described in the publication: Bernard B. A., Bernardon J. M., Delescluse C., Martin C., Lenoir M. C., Maignan J., Carpentier B., Pilgrim W. R., Reichert U. and Shroot B., Biochem. Biophys. […] HeLa cells were cotransfected with expression vectors coding for human RARs and the reporter plasmid TREpp-tk-CAT. The value given represents the concentration of test compound which elicited 50% of the maximum CAT activity.

The next assay concerns the target T2, RARα (Homo sapiens, UniProt P10276).
T2 construct: expressed in transfected cells
T2 sequence (P10276 1-462): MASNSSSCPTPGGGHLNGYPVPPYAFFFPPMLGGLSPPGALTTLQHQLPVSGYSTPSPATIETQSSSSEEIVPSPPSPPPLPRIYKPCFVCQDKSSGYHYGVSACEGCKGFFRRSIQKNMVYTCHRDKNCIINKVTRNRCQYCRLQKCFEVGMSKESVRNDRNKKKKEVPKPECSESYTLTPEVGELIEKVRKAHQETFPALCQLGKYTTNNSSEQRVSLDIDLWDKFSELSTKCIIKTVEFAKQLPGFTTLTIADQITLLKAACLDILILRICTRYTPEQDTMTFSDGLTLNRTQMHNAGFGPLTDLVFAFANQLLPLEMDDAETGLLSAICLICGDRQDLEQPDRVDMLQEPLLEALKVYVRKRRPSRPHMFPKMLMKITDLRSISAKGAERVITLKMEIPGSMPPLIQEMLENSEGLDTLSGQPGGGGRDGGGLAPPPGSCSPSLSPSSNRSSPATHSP
Description: RAR Transactivation, RARα (HeLa cells cotransfected with human RAR expression vector and TREpp-tk-CAT reporter). It counts as cell-based. The following applies: concentration eliciting 50% of the maximum CAT activity. Here is the method: as §1

For assay [1], the target named is T3, RARβ (Homo sapiens, UniProt P10826).
T3 sequence (P10826 1-448 isoform P10826-2): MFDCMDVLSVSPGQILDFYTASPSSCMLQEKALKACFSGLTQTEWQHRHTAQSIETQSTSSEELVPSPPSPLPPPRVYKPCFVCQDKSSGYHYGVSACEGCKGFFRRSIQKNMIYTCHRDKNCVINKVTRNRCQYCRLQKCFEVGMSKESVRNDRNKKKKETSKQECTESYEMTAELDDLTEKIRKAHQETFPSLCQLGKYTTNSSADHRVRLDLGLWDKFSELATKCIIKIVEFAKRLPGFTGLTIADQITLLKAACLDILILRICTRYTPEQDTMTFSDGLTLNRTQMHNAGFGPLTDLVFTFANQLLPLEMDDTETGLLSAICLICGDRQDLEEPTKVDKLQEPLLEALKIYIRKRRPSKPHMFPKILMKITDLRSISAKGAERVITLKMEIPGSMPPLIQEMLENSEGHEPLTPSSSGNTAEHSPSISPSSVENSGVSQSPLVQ
In words: RAR Transactivation, RARβ (HeLa cells cotransfected with human RAR expression vector and TREpp-tk-CAT reporter). Details: expressed in transfected cells. Conditions: concentration eliciting 50% of the maximum CAT activity. It counts as cell-based. Here is the method: as §1

Assay [2] has as its system mouse embryonic teratocarcinoma F9 cells. In words: Differentiation of mouse embryonic teratocarcinoma F9 cells (plasminogen activator secretion). Conditions: concentration producing half of the maximum amount of plasminogen activator secreted. Format: cell-based. From the text: Their activities may also be measured in tests of cell transactivation using pretransfected recombinant RAR or RXR receptors (B. A. Bernard et al, Biochemical and Biophysical Research Communication, vol. 186, 977-983 (1992); M. F. Boehm et al, Journal of Medicinal Chemistry, 37, 408-414 (1994)).
This differentiation was characterized by the secretion of the plasminogen activator into the culture medium. The activity of the compound is expressed by the AC50 value, which represents the concentration of test compound which produces half of the maximum amount of plasminogen activator secreted.

Assay [3] concerns the target T3, RARβ. In words: RAR binding, RARβ (competition binding, nuclear extracts of transfected cos-7 cells). Set-up: expressed in transfected cells; host or cells: COS-7 (nuclear extracts). Conditions: recombinant human receptors, cos-7 nuclear extracts; competition with [H^3]-4-(5,6,7,8-tetrahydro-5,5,8,8-tetramethyl-2-anthracenyl benzoic acid). Here is the method: (c) The binding test was carried out on recombinant human receptors produced by the transfection of cos-7 cells with expression vectors coding for the RAR receptor subtypes.

Take `COc1ccc(C2=Cc3ccc(C(=O)O)cc3OC2)cc1C12CC3CC(CC(C3)C1)C2` [Example 1, 3-[(3-(1-adamantyl)-4-methoxyphenyl)-2H-1-benzopyran]-7-carboxylic acid]: the values for the AC50 at RARγ, at RARα and on RARβ [1] were 4 nM, 8 nM and 2 nM, respectively.

As to `CC1(C)CCC(C)(C)c2cc(C3=Cc4ccc(C(=O)O)cc4OC3)ccc21` [Example 2, 3-[(5,6,7,8-tetrahydro-5,5,8,8-tetramethyl-2-naphthyl)-2-H-1-benzopyran]-7-carboxylic acid], the AC50 worked out at 15 nM on RARγ, 58 nM in assay [2], 22 nM on RARα and 2 nM on RARβ [1].

As for `CC(C)(C)c1cc(C2=Cc3ccc(C(=O)O)cc3OC2)cc(C(C)(C)C)c1O` [Example 11, 3-[(3,5-di-tert-butyl-4-hydroxyphenyl)-2-H-1-benzopyran]-7-carboxylic acid], the figures for the concentration at half-maximal activity (AC50) (at RARγ; in assay [2]; at RARβ [1]) were 157 nM, 320 nM and 77 nM, respectively. For the same compound, the Kd on RARβ [3] was 3680 nM.

As to `O=C(O)c1ccc2c(c1)OCC(c1ccc(O)c(C34CC5CC(CC(C5)C3)C4)c1)=C2` [Example 13, 3-[(3-(1-adamantyl)-4-hydroxphenyl)-2H-1-benzopyran]-7-carboxylic acid], the AC50 on RARγ came to 6 nM; in assay [2], 107 nM; at RARα it was 47 nM; at RARβ [1], 20 nM. Moreover, the Kd on RARβ [3] stood at 3300 nM.
